Laboratory results reported in patent EP1388586A2, “Identification of broadly reactive DR restricted epitopes” (priority 1998, dated 1999).
Like-named read-outs stand apart in the source and are kept apart here. Ends that are not written are not given here.

Key:
[1] = biological target: T1, DRB1*0101 (DR1) (Homo sapiens, UniProt P01903+P01911, A100R/D57E/F55L/F60I/F76Y/I96L/L162R/M171V/P40L/Q125E/R42F/V115G/Y59C); assay: Class II peptide-binding assay, DR1;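 note: competition assay: unlabeled test peptides inhibit binding of a radiolabeled probe peptide to purified DR, with half-maximal inhibition taken as an approximate dissociation constant Kd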
T1 construct: used as sources of human HLA class II molecules; endogenous in cells; host or cells: LG2 (EBV-transformed homozygous B cell line)

[2] = biological target: T2, DRB5*0101 (DR2w2a) (Homo sapiens, UniProt P01903+Q30154); assay: Class II peptide-binding assay, DR2w2a (DR2w2B2);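 note: competitive binding assay: unlabeled peptide inhibiting binding of a radiolabeled probe peptide to purified DR molecules at pH 7.0, IC50 approximating Kd, lower means stronger binding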
T2 construct: used as sources of human HLA class II molecules; endogenous in cells; host or cells: GM3107 (EBV-transformed homozygous B cell line)

[3] = biological target: T3, DRB1*0401 (DR4w4) (Homo sapiens, UniProt P01903+P01911, A100K/A169T/F76Y/I96L/K127E/L162R/M171V/N62H/P40V/Q125Y/R42H/S133A/S149N/S66Y/V115G/V209L/W38E); assay: Class II peptide-binding assay, DR4w4;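 note: unlabeled test peptides compete with a radiolabeled probe peptide for binding to affinity-purified HLA-DR, with DR amount titrated to capture a small fraction of label, IC50 approximating Kd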
T3 construct: used as sources of human HLA class II molecules; endogenous in cells; host or cells: PREISS (EBV-transformed homozygous B cell line)
Experimental: Class II peptide-binding assays. […] These assays were chosen as to be representative of the most common DR alleles.
Radiolabeled peptides were iodinated using the chloramine-T method. […] In appropriate stoichiometric conditions, the IC50 of an unlabeled test peptide to the purified DR is a reasonable approximation of the affinity of interaction (Kd). Peptides were tested in two to four completely independent experiments. […] Final detergent concentration in the incubation mixture was 0.05% Nonidet P-40. Assays were performed at pH 7.0 with the exception of DR3, which was performed at pH 4.5, and DRw53, which was performed at pH 5.0.
All subsequent inhibition and direct binding assays were the performed using these class II concentrations.

[4] = biological target: T4, DRB10404 (DR4w14) (Homo sapiens, UniProt P01903+P01911, A100R/A169T/F76Y/I96L/K127E/L162R/M171V/N62H/P40V/Q125Y/R42H/S133A/S149N/S66Y/V209L/W38E); assay: Class II peptide-binding assay, DR4w14;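 note: unlabeled peptides compete with a radiolabeled probe for binding to affinity-purified HLA-DR, neutral pH, class II amount titrated to bind a small fraction of label, IC50 approximates Kd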
T4 construct: used as sources of human HLA class II molecules; endogenous in cells; host or cells: BIN40 (EBV-transformed homozygous B cell line)

[5] = biological target: T5, DRB1*1101 (DR5w11) (Homo sapiens, UniProt P01903+P01911, A100R/A169T/A87E/I96F/K41T/L162R/M171V/P40S/Q125H/Q178H/Q39Y/Q99D/R42S/S66Y/T262R/V115G/W38E); assay: Class II peptide-binding assay, DR5w11;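 note: competition by unlabeled test peptide against iodinated probe peptide binding to affinity-purified HLA-DR, class II amount titrated beforehand, half-maximal inhibitory concentration read as approximate Kd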
T5 construct: used as sources of human HLA class II molecules; endogenous in cells; host or cells: SWEIG (EBV-transformed homozygous B cell line)
T5 sequence (P01903 26-254, other chains not shown): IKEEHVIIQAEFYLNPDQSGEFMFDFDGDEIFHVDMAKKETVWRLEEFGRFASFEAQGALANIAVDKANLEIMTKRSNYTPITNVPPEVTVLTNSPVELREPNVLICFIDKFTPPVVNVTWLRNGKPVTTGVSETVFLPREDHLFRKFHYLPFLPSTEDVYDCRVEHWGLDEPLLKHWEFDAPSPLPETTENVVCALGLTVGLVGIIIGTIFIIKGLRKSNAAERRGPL

[6] = biological target: DRB1*0701 (DR7) (Homo sapiens, UniProt P01903+P01911, A100R/A102G/A103Q/D57E/D86V/E43K/F76Y/K127E/L162R/M171V/P40G/Q125H/Q99D/R33Q/R42Y/R54Q/S133A/S66F/T210M/V115G/Y107V/Y59L/Y89S); assay: Class II peptide-binding assay, DR7;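 note: unlabeled peptides compete with an iodinated probe peptide for binding to affinity-purified HLA-DR at neutral pH, DR amount titered to bind a small tracer fraction, IC50 approximating Kd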
[7] = read-out: DR1 nM (In IC50 Format), purified HLA DR1
[8] = read-out: DR2w2B2 nM (In IC50 Format), purified HLA DR2w2β2
[9] = read-out: DR4w4 nM (In IC50 Format), purified HLA DR4w4
[10] = read-out: DR4w14 nM (In IC50 Format), purified HLA DR4w14
[11] = read-out: DR5w11 nM (In IC50 Format), purified HLA DR5w11
[12] = read-out: DR7 nM (In IC50 Format), purified HLA DR7
[13] = purified HLA DR1, read-out: DR1 nM (In IC50 Format)
[14] = purified HLA DR2w2β2, read-out: DR2w2B2 nM (In IC50 Format)
[15] = purified HLA DR4w4, read-out: DR4w4 nM (In IC50 Format)
[16] = purified HLA DR4w14, read-out: DR4w14 nM (In IC50 Format)
[17] = purified HLA DR5w11, read-out: DR5w11 nM (In IC50 Format)
[18] = purified HLA DR7, read-out: DR7 nM (In IC50 Format)

Row | Substance | IC50 [1, 7] | IC50 [2, 8] | IC50 [3, 9] | IC50 [4, 10] | IC50 [5, 11] | IC50 [6, 12] | further results
1 | AFAAAATLKA-NH2 [Peptide 770.01] | 78.1 nM | 43.1 nM | 23.7 nM | 357 nM | 250 nM | 694 nM | 
2 | ARRLKAIYARRLK [Peptide 640.04] |  |  |  |  |  |  | IC50 ([1]; read-out: In IC50 Format DR1, Table VIII): 3.6 nM; IC50 ([2]; read-out: In IC50 Format DR2w2β2, Table VIII): 8.7 nM; IC50 ([3]; read-out: In IC50 Format DR4w4, Table VIII): > 22500 nM; IC50 ([4]; read-out: In IC50 Format DR4w14, Table VIII): 667 nM; IC50 ([5]; read-out: In IC50 Format DR5w11, Table VIII): 667 nM; IC50 ([6]; read-out: In IC50 Format DR7, Table VIII): 29.2 nM
3 | Ac-AFAAAATLKA-NH2 [Peptide 770.02] | 35.7 nM | 132 nM | 21.4 nM | 102 nM | 104 nM | 325 nM | 
4 | CPIAIMSALAMVYLGAKDS [Peptide 705.04] | 53.2 nM | 408 nM | 882 nM | 1140 nM | 6670 nM | 1090 nM | 
5 | EALVRQGLAKVAYVYKPNN [NASE 101-] |  |  |  |  |  |  | IC50 ([1]; read-out: DR1 nM, Table VIII, In IC50 Format): 2.2 nM; IC50 ([2]; read-out: DR2w2B2 nM, Table VIII, In IC50 Format): 154 nM; IC50 ([3]; read-out: DR4w4 nM, Table VIII, In IC50 Format): 978 nM; IC50 ([4]; read-out: DR4w14 nM, Table VIII, In IC50 Format): 1140 nM; IC50 ([5]; read-out: DR5w11 nM, Table VIII, In IC50 Format): 100 nM; IC50 ([6]; read-out: DR7 nM, Table VIII, In IC50 Format): 454 nM
6 | INSWVESQTNGIIRNVLQPS [Peptide 732.01] | 385 nM | 1330 nM | 166 nM | 269 nM | 6670 nM | 269 nM | 
7 | KMYFNLINTKCYKLEH [Peptide 541.14] |  |  |  |  |  |  | IC50 ([1]; Table VIII, read-out: In IC50 Format DR1): 714 nM; IC50 ([2]; Table VIII, read-out: In IC50 Format DR2w2β2): 103 nM; IC50 ([3]; Table VIII, read-out: In IC50 Format DR4w4): 2140 nM; IC50 ([4]; Table VIII, read-out: In IC50 Format DR4w14): 3570 nM; IC50 ([5]; Table VIII, read-out: In IC50 Format DR5w11): 250 nM; IC50 ([6]; Table VIII, read-out: In IC50 Format DR7): 269 nM
8 | KYLATASTMDHARHGFLP [Peptide 765.02] | 50000 nM | 10000 nM | 100 nM | 86.5 nM | 5000 nM | 157 nM | 
9 | LMQYIKANSKFIGITE [Peptide 812.03] |  |  |  |  |  |  | IC50 [1, 13]: 13.2 nM; IC50 [2, 14]: 4.9 nM; IC50 [3, 15]: 150 nM; IC50 [4, 16]: 65.8 nM; IC50 [5, 17]: 13.9 nM; IC50 [6, 18]: 11.9 nM
10 | MQYIKANSKFIGITE [Peptide 812.05] |  |  |  |  |  |  | IC50 [1, 13]: 64.1 nM; IC50 [2, 14]: 2.4 nM; IC50 [3, 15]: 229 nM; IC50 [4, 16]: 84.5 nM; IC50 [5, 17]: 6.7 nM; IC50 [6, 18]: 7.8 nM
